The values below come from patent US20210220320A1, “ANALGESIC AGENT AND SEDATIVE AGENT” (THE UNIVERSITY OF TOKYO, priority 2018, published 2021).

The test system of experiment [1] is sciatic nerve ligation (CCI) mouse. In words: Sciatic nerve ligation (CCI) model, plantar test of pain threshold for heat. The format is in vivo. The conditions noted are these: 40 mg/kg intraperitoneally, plantar test 30 min after administration; p<0.01 (FIG. 2). From the text: Since central sensitization was known to be involved in the second phase pain response in the formalin test, DSF was expected to also exert its effects on neuropathic pain. […] Thus, the sciatic nerve ligation (CCI) model, which is commonly used as a neuropathic pain mouse model, was used to evaluate the efficacy of DSF. In the sciatic nerve ligation (CCI) mouse group, a femoral region of each mouse was cut open and the muscle layer was removed to expose the sciatic nerve, and the sciatic nerve was ligated with 6-0 silk sutures at three positions spaced 1 mm apart, and the incision was then closed. In contrast, each mouse in the sham operation (Sham) group was subjected to the same operation till the muscle layer was removed, and the incision was then closed without ligating the exposed sciatic nerve. On one week postsurgery or later, the planter test was performed to evaluate the pain threshold for heat, which was a stimulus not associated with stimulant administration, in those mice. DSF was administered intraperitoneally to mice in the CCI DSF group at a dose of 40 mg/kg. The solvent control (a solution of 10% DMSO and 2% Tween-80) was administered instead of DSF to mice in the CCI control group. The plantar test was performed 30 minutes after administration.

Experiment [2] has as its system mice subjected to the formalin test. Put plainly: Formalin test (inflammatory pain model), pain behavior in mice. The experiment is classed as in vivo, mouse. On the procedure:
The formalin test, which is an inflammatory pain model and is commonly used as a neuropathic pain model in a broad sense, was used to evaluate the pain-inhibiting effect of disulfiram (DSF).
In the formalin test, each mouse was placed in a transparent container for 30 minutes for acclimation to the analysis environment. Thereafter, a test drug or a solvent control (a solution of 10% DMSO and 2% Tween-80) was administered intraperitoneally to each mouse, and 30 minutes later, 20 μL of 1% formalin was injected subcutaneously from the palmar surface of the right hind paw to observe pain behavior in each mouse. The duration (sec.) of paw lifting and paw licking was used as a measured value of intensity of pain.
The formalin test is one of the commonly used models that are used as pain models to evaluate analgesic effects. A biphasic pain-like behavior is observed in the formalin test; the first response appears within 5 minutes and disappears till 10 minutes after the administration of formalin, and the second response is a response that reappears within 10 to 15 minutes after the administration of formalin (FIG. 1A).
DSF is metabolized in the body to generate diethyldithiocarbamate (DDC). The analgesic effects of metal complexes of DDC, which are considered to generate DDC in the body as well as DSF, was evaluated by the formalin test. The formalin test was performed in the same manner as in the above-described section 1. except that a copper complex of DDC (Cu(DDC)2) and an iron(III) complex of DDC (Fe(DDC)3) were used as test drugs. Either of the complexes was administered to mice at a dose of 40 mg/kg.

In the case of `CCN(CC)C(=S)SSC(=S)N(CC)CC` [DSF, tetraethylthiuram disulfide], the “reduction in pain threshold associated with sciatic nerve ligation (CCI)” value in experiment [1] is given as “prevented to a significant degree”. The “analgesic effect (suppression of the second response) at 10 mg/kg” value in experiment [2] (10 mg/kg intraperitoneally, versus solvent control (FIG. 1C)) is on record as “significant analgesic effects”. Besides, the “suppression of the second response (pain score) in the formalin test” value in experiment [2] (40 mg/kg intraperitoneally, 30 min before 1% formalin, p<0.001 (FIG. 1B)) is “strongly suppressed”. For the same compound, the “dose dependency of suppression of the second response relative to solvent control (100%)” value in experiment [2] (DSF dose groups, intraperitoneal (FIG. 1C)) is listed as “analgesic effects in a dose-dependent manner”. Also, the “analgesic effect compared with existing analgesics (pregabalin, loxoprofen, aspirin), suppression of the second response” value in experiment [2] (all drugs at a fixed dose of 40 mg/kg (FIG. 1D)) was “stronger analgesic effects than all of the tested existing analgesics”. In experiment [2] (mice in the formalin test after intraperitoneal administration), the “sedative effect (behavior of treated mice)” value is “behaved more quietly”.
